Read-outs that look alike come from different tables or passages of the source. Bridge positions count the residues as written; N and C are the ends. Square brackets hold non-standard residues; d marks the D form. Peptide text beside a SMILES is read from it. R8 = C=CCCCCCC[C@@](C)(N)C(=O)O; S5 = C=CCCC[C@](C)(N)C(=O)O
Experiments:
HIV-1 IIIB [1] = assay: Release and infectivity of HIV-1 virus released from infected MT-2 cells after treatment; format: cell-based; conditions: 500 nM, normalized for p24, TCID50
Procedure: On the fourth day post-infection, the supernatants were collected and filtered with a 0.45 μm PVDF membrane. One aliquot of the supernatants from each sample was mixed 1:1 with a solution of 5% Triton X-100 for p24 quantification, and stored at 4° C., another aliquot was immediately frozen at −80° C. and used to compare the infectivity of the viral particles released by NYAD-201 and NYAD-202 treated cells to the viral particles released by untreated cells. The protein p24 was first quantified by sandwich-ELISA, then the viral samples were normalized for the p24 content and titered to calculate the TCID50. MT-2 cells were infected with a two fold dilutions of virus from NYAD-201 and NYAD-202 treated and untreated cells. […] On the fourth day post infection supernatants were collected for p24 quantification by sandwich-ELISA and the TCID50 was calculated by the Spearman-Karber statistical method. […]
For these reasons, not only the quantity but also the quality of the viral particles released in the supernatant was evaluated. First, the p24/viral particles released in the supernatant following NYAD-201 and NYAD-202 treatment were quantified, then starting with the same amount of p24 per sample, the viruses released in the supernatant were titered. The TCID50 was calculated and expressed as percentage infectivity with respect to the untreated positive control. […]

[2] = Cytotoxicity, XTT method, PBMC; format: cell-based; conditions: human
Procedure: (§1) Cytotoxicity of peptides in MT-2 cells and PBMC was measured by the XTT [(sodium 3′-(1-(phenylamino)-carbonyl)-3,4-tetrazolium-bis(4-methoxy-6-nitro) bezenesulfonic acid hydrate)] method as previously described (Jiang et al., 2004). Briefly, for MT-2 cells, 100 μl of a peptide at graded concentrations was added to an equal volume of cells (1×10^5 cells/ml) in 96-well plates followed by incubation at 37° C. for 4 days, which ran parallel to the neutralization assay in MT-2 (except medium was added instead of virus). In the case of PBMC, 5×10^5 cells/ml were used and the cytotoxicity was measured after 7 days. After addition of XTT (PolySciences, Inc.), the soluble intracellular formazan was quantitated colorimetrically at 450 nm 4 hr later with a reference at 620 nm. The percent of cytotoxicity and the CC50 values were calculated as above (Table 2 and Table 3).

Jurkat cells = assay: Cytotoxicity, LDH leakage, Jurkat cells; format: cell-based; conditions: 30 min, 2 hr and 4 hr of exposure
Procedure: Cytotoxicity was also evaluated in Jurkat cells using a Promega LDH leakage detection kit. Jurkat cells were plated at 10^4 cells/well in a volume of 200 μl. The test was performed after 30 min, 2 hr and 4 hr of exposure to the NYAD-201, NYAD-202 and NYAD-203 compounds.

HIV-1 IIIB [3] = test system: HIV-1 IIIB
Procedure: (§2) The inhibitory activity of NYAD-201, and related stapled peptides on infection by laboratory-adapted HIV-1 strains was determined as previously described (Jiang et al. J Exp. Med 174:1557-1563, 1991) with minor modifications. Azidothymidine (AZT) was used as a positive control in the infectivity assays. In brief, 1×10^4 MT-2 cells were infected with HIV-1 at 100 TCID50 (50% tissue culture infective dose) (0.01 MOI [multiplicity of infection]) in 200 μl RPMI 1640 medium containing 10% FBS in the presence or absence of peptides at graded concentrations overnight. The culture supernatants were then removed and fresh media containing freshly prepared test peptide were added. On the fourth day post-infection, 100 μl of culture supernatants were collected from each well, mixed with equal volume of 5% Triton X-100 and tested for p24 antigen by ELISA.
(§3) In addition, NYAD-201, NYAD-202 and NYAD-203 were also tested using several laboratory-adapted and primary isolates in MT-2 cells and PBMC (peripheral blood mononuclear cells), respectively.

HIV-1 AZT-R = conditions: read-out: IC50 (μM ± SD), HIV-1 AZT-R; RT-resistant isolate, subtype B, MT-2, coreceptor X4
Procedure: as §2, §3

[4] = Cytotoxicity, XTT method, MT-2 cells; format: cell-based, human; conditions: human, read-out: CC50 (μM) ± SD, cytotoxicity in MT-2 cells
Procedure: as §1

[5] = read-out: IC50 (μM) ± SD, antiviral activity against HIV-1 IIIB, MT-2 cells, p24 production, fourth day post-infection

| Structure (SMILES) | IC50 (HIV-1 IIIB [3]; [5]) [µM] | CC50 at 4 days [4] [µM] | other results |
| --- | --- | --- | --- |
| Cc1c(O)cccc1C(=O)N[C@@H](CSc1ccccc1)[C@H](O)CN1C[C@H]2CCCC[C@H]2C[C@H]1C(=O)NC(C)(C)C [NFV, nelfinavir, reference compound] |  |  | Infectivity of virus produced by treated cells (HIV-1 IIIB [1]): not infectious or slightly infectious |
| CSCC[C@@H]1NC(=O)[C@H](Cc2c[nH]c3ccccc23)NC(=O)[C@@](C)(NC(=O)[C@H](CCCCN)NC(=O)[C@@H](NC(=O)[C@H](CCC(=O)O)NC(=O)[C@H](CCC(N)=O)NC(=O)[C@H](C)N)C(C)C)CCCC=CCCC[C@@](C)(C(=O)N[C@H](C(=O)N[C@@H](CC(C)C)C(=O)N[C@@H](CC(C)C)C(=O)N[C@H](C(=O)N[C@@H](C)C(=O)N[C@@H](CCCCN)C(=O)N[C@@H](CCCCN)C(=O)N[C@@H](CCCCN)C(N)=O)C(C)C)[C@@H](C)O)NC(=O)[C@H]([C@@H](C)O)NC1=O [NYAD-203, AQEVKXWMTXTLLVAKKK] (H-AQEVK[S5]WMT[S5]TLLVAKKK-NH2; staple 6-10) | 6.29 ± 0.54 | 13.2 ± 0.5 | CC50 at 7 days [2]: 16 ± 1.47 µM; Cytotoxicity in Jurkat cells (LDH leakage) (Jurkat cells): more toxic at the two higher doses; IC50 (HIV-1 IIIB [3]; read-out: IC50 (μM ± SD), HIV-1 IIIB, laboratory strain, subtype B, MT-2, coreceptor X4): 6.29 ± 0.54 µM; IC50 (HIV-1 AZT-R): 11.1 ± 3.82 µM |
| CSCC[C@@H]1NC(=O)[C@H](Cc2c[nH]c3ccccc23)NC(=O)[C@@](C)(NC(=O)[C@H](CCCCN)NC(=O)[C@@H](NC(=O)[C@H](C)NC(=O)[C@H](CCC(N)=O)NC(=O)[C@H](C)N)C(C)C)CCCC=CCCC[C@@](C)(C(=O)N[C@H](C(=O)N[C@@H](CC(C)C)C(=O)N[C@@H](CC(C)C)C(=O)N[C@H](C(=O)N[C@@H](CCC(=O)O)C(=O)N[C@@H](CC(N)=O)C(=O)N[C@@H](C)C(N)=O)C(C)C)[C@@H](C)O)NC(=O)[C@H]([C@@H](C)O)NC1=O [NYAD-212, AQAVKXWMTXTLLVENA] (H-AQAVK[S5]WMT[S5]TLLVENA-NH2; staple 6-10) | 5.95 ± 0.33 | > 102 |  |
| CSCC[C@@H]1NC(=O)[C@H](Cc2c[nH]c3ccccc23)NC(=O)[C@@](C)(NC(=O)[C@H](CCCCN)NC(=O)[C@@H](NC(=O)[C@H](C)NC(=O)[C@H](CCC(N)=O)NC(=O)[C@H](C)N)C(C)C)CCCC=CCCC[C@@](C)(C(=O)N[C@H](C(=O)N[C@@H](CC(C)C)C(=O)N[C@@H](CC(C)C)C(=O)N[C@@H](CCCCN)C(=O)N[C@@H](C)C(=O)N[C@@H](CC(N)=O)C(=O)N[C@@H](C)C(=O)N[C@@H](CCC(=O)O)C(N)=O)[C@@H](C)O)NC(=O)[C@H]([C@@H](C)O)NC1=O [NYAD-214, AQAVKXWMTXTLLKANAE] (H-AQAVK[S5]WMT[S5]TLLKANAE-NH2; staple 6-10) | 17.4 ± 0.9 | > 48 |  |
| CSCC[C@@H]1NC(=O)[C@H](CCCCN)NC(=O)[C@@](C)(NC(=O)[C@H](Cc2c[nH]c3ccccc23)NC(=O)[C@@H](NC(=O)[C@H](CC(C)C)NC(=O)[C@H](CCC(N)=O)NC(=O)[C@@H](N)CCC(=O)O)C(C)C)CCCC=CCCC[C@@](C)(C(=O)N[C@@H](C)C(=O)N[C@@H](CC(C)C)C(=O)N[C@@H](C)C(=O)N[C@H](C(=O)N[C@H](C(N)=O)[C@@H](C)O)C(C)C)NC(=O)[C@H]([C@@H](C)O)NC1=O [NYAD-215, EQLVWXKMTXALAVT, reference compound] (H-EQLVW[S5]KMT[S5]ALAVT-NH2; staple 6-10) | > 56 | > 112 |  |
| CSCC[C@H](NC(=O)[C@H](Cc1c[nH]c2ccccc12)NC(=O)[C@H](CC(N)=O)NC(=O)[C@H](CCCCN)NC(=O)[C@@H](NC(=O)[C@H](C)NC(=O)[C@H](CCC(N)=O)NC(=O)[C@H](C)N)C(C)C)C(=O)N[C@H](C(=O)N[C@@]1(C)CCCC=CCCC[C@@](C)(C(=O)N[C@@H](C)C(N)=O)NC(=O)[C@H](CC(C)C)NC(=O)[C@H](CC(C)C)NC(=O)[C@H]([C@@H](C)O)NC1=O)[C@@H](C)O [NYAD-218, AQAVKNWMTXTLLXA] (H-AQAVKNWMT[S5]TLL[S5]A-NH2; staple 10-14) | 4.6 ± 0.4 | 67.3 ± 4.4 |  |
| CC(C)C[C@H](NC(=O)[C@H](CC(C)C)NC(=O)[C@@H](NC(=O)[C@]1(C)CCCC=CCCC[C@](C)(NC(=O)[C@H](CCCCN)NC(=O)[C@H](Cc2c[nH]c3ccccc23)NC(=O)[C@H](C)NC(=O)[C@H](CCC(N)=O)NC(=O)[C@H](C)N)C(=O)N[C@@H](Cc2c[nH]c3ccccc23)C(=O)N[C@@H](C)C(=O)N[C@@H]([C@@H](C)O)C(=O)N1)[C@@H](C)O)C(=O)N[C@H](C(=O)N[C@@H](C)C(=O)N[C@@H](CCC(=O)O)C(N)=O)C(C)C [NYAD-219, AQAWKXWATXTLLVAE] (H-AQAWK[S5]WAT[S5]TLLVAE-NH2; staple 6-10) | 3.7 ± 0.06 | > 106 |  |
| CSCC[C@@H]1NC(=O)[C@H](Cc2c[nH]c3ccccc23)NC(=O)[C@@](C)(NC(=O)[C@H](CCCCN)NC(=O)[C@@H](NC(=O)[C@H](C)NC(=O)[C@H](CCC(N)=O)NC(=O)[C@H](C)N)C(C)C)CCCC=CCCC[C@@](C)(C(=O)N[C@H](C(=O)N[C@@H](CC(C)C)C(=O)N[C@@H](CCCCN)C(=O)N[C@H](C(=O)N[C@@H](C)C(=O)N[C@@H](CCC(=O)O)C(N)=O)C(C)C)[C@@H](C)O)NC(=O)[C@H](CCC(=O)O)NC1=O [NYAD-220, AQAVKXWMEXTLKVAE] (H-AQAVK[S5]WME[S5]TLKVAE-NH2; staple 6-10) | > 52.7 | > 105 |  |
| CSCC[C@@H]1NC(=O)[C@H](Cc2c[nH]c3ccccc23)NC(=O)[C@](C)(NC(=O)[C@H](CCCCN)NC(=O)[C@@H](NC(=O)[C@H](C)NC(=O)[C@H](CCC(N)=O)NC(=O)[C@H](C)N)C(C)C)CCCCCCC=CCCC[C@@](C)(C(=O)N[C@H](C(=O)N[C@@H](C)C(N)=O)C(C)C)NC(=O)[C@H](CC(C)C)NC(=O)[C@H]([C@@H](C)O)NC(=O)[C@H](CCC(=O)O)NC(=O)[C@H]([C@@H](C)O)NC1=O [NYAD-221, AQAVKZWMTETLXVA] (H-AQAVK[R8]WMTETL[S5]VA-NH2; staple 6-13) | 7.97 ± 1.03 | > 140 |  |
| CC(C)C[C@@H]1NC(=O)[C@H]([C@@H](C)O)NC(=O)[C@H](CCC(=O)O)NC(=O)[C@H]([C@@H](C)O)NC(=O)[C@H](C)NC(=O)[C@H](Cc2c[nH]c3ccccc23)NC(=O)[C@](C)(NC(=O)[C@H](CCCCN)NC(=O)[C@H](Cc2c[nH]c3ccccc23)NC(=O)[C@H](C)NC(=O)[C@H](CCC(N)=O)NC(=O)[C@H](C)N)CCCCCCC=CCCC[C@@](C)(C(=O)N[C@H](C(=O)N[C@@H](C)C(=O)N[C@@H](CC(N)=O)C(N)=O)C(C)C)NC1=O [NYAD-222, AQAWKZWATETLXVAN] (H-AQAWK[R8]WATETL[S5]VAN-NH2; staple 6-13) | 9.3 ± 1.6 | > 130 |  |
| CC[C@H](C)[C@H](N)C(=O)N[C@@H](C)C(=O)N[C@@H](CCC(N)=O)C(=O)N[C@@H](C)C(=O)N[C@@H](CCCCN)C(=O)N[C@H](C(=O)N[C@@H](CCC(=O)O)C(=O)N[C@@]1(C)CCCC=CCCC[C@@](C)(C(=O)N[C@H](C(=O)N[C@@H](CC(C)C)C(=O)N[C@@H](CC(C)C)C(=O)N[C@H](C(=O)N[C@@H](C)C(=O)N[C@@H](CC(N)=O)C(N)=O)C(C)C)[C@@H](C)O)NC(=O)[C@H]([C@@H](C)O)NC(=O)[C@H](CCSC)NC(=O)[C@H](Cc2c[nH]c3ccccc23)NC1=O)C(C)C [NYAD-223, IAQAKVEXWMTXTLLVAN] (H-IAQAKVE[S5]WMT[S5]TLLVAN-NH2; staple 8-12) | 7.2 ± 1.2 | > 124 |  |

Source: patent publication US8933019B2, “Antiviral cell-penetrating peptides” (priority 2008, dated 2015)
